Data on eight molecules can be found in PMC10223347, “Acute Toxicity and Pharmacokinetic Profile of an EU-GMP-Certified Cannabis sativa L. in Rodents” (Pharmaceuticals, 2023).

SMILES strings stand for the structures.

The nature of data set [1]: Pharmacokinetic profile: cannabinoids in rat serum by LC-MS/MS, non-compartmental analysis. Particulars: for Tmax / AUC Inf / AUC Last / Cl / Cmax / T1/2 / Vd: rat serum; for amount identified and quantitated in serum samples: rats given doses of 5, 50, 300 and 600 mg/kg, LC-MS. On the procedure: The pharmacokinetic profile of the EU-GMP-certified Cannabis sativa L. with 15.6% THC and <1% CBD was assessed using 4 dose levels, 5, 50, 300, and 600 mg/kg. Dose levels were chosen in accordance with OECD 417 guidelines being lower than 1000 mg/kg but still high enough to allow for the identification and measurement of natural cannabinoids in the serum. Each dose level group consisted of 6 female Sprague-Dawley rats (8–12 weeks, 200–300 g) housed, cared and treated in the same conditions as the animals involved in the acute toxicity study. After gavage delivery of the compound, blood samples were collected, through a cardiac puncture, at 15 min, 30 min, 1 h, 2 h, 3 h, 4 h, 8 h, 12 h, 24 h, 48 h, and 72 h, respectively. The collected blood samples were then allowed to clot for 30 min at room temperature and centrifuged at 2000× g for 15 min at 4 °C. The separated serum samples were transferred immediately in microcentrifuge tubes and stored at −20 °C until THC and THCA quantification using LC-MS analysis were performed.
A method for simultaneous extraction and LC-MS/MS quantitation of 11 cannabinoids was developed and validated for the present study. Cannabinoid extraction from rat serum was performed according to the method described by Wakshlag et al., with modifications. Rat serum (40 μL) was mixed with 10 μL water: methanol (1:1) and 10 μL internal standard (200 ng/mL of CBD-d3) diluted in water: methanol (1:1). Proteins were precipitated by adding 80 μL ice-cold acetonitrile to each sample followed by vortex 2 min at 6 °C, 1000 rpm and centrifugation at 4000 rpm for 10 min at 4 °C. The supernatant (100 μL) was mixed with ultrapure water (100 μL) in another 1.5 mL microcentrifuge tube and centrifuged again at 4000 rpm for 10 min at 4 °C. The supernatant (100 μL) was transferred to another 1.5 mL microcentrifuge tube and placed in ice until LCMS analysis. Ten μL of the sample were injected into a Phenomenex Kinetex C18 (100 × 4.6 mm, 2.6 μm, 100 Å) HPLC separation column connected in the column compartment of an Agilent 1200 HPLC coupled to an Agilent 6410 electrospray-triple quadrupole mass spectrometer. A 10:1 post-column splitter was used. The column was equilibrated with mobile phase A (0.1% formic acid in water) and mobile phase B (0.1% formic acid in acetonitrile) at 50% B for 1 min. A linear gradient from 50% B to 90% B for 3 min was used and was held constant at 90% B for 6 min, then decreased to 50% B in 1 min and maintained at 50% B for 5 min. The flow rate was […], and the column temperature was 24 °C.
The mass spectrometer was operated in positive mode. The source parameters were a capillary voltage of 4000 V, a gas of temperature 325 °C, a gas flow of 8 L/min, and a nebulizer of 35 psi. The parameters of the mass spectrometer for each time and scan segment and the retention time for each compound are presented in Table 3.
The qualitative analysis of the chromatograms and mass spectra was performed by Agilent MassHunter Workstation Software Qualitative Analysis v.B.01.02 and the quantitative analysis by Agilent MassHunter Workstation Software Quantitative Analysis v.B.01.03. Linear calibration curves were obtained for all 11 cannabinoids using the relative response (peak area of each cannabinoid/peak area of internal standard) and the relative concentration (concentration of each cannabinoid/concentration of internal standard). A linear 7-point calibration curve with 1/×2 weighing and a concentration range of 5–1000 ng/mL in rat serum was employed for the quantitation of the serum samples collected in the present study. The analysis of carryover was performed by LC/MS analysis of a blank sample extracted from normal rat serum after LC/MS analysis of a sample extracted from rat serum fortified with 1000 ng/mL natural cannabinoids.

For data set [2], the system named is Scn1A mice. Further details: method as in PMID 34384142. To be noted: cited from earlier work.
Data set [3] concerns seizure models with electric shocks. On the set-up: method as in PMID 34384142. To be noted: doses of 10 and 30 mg/kg; cited from earlier work.
The test system of data set [4] is CB2. Further details: method as in PMID 28861508. To be noted: cited from earlier work.
The subject of data set [5] is CB1. On the set-up: method as in PMID 28861508. Particulars: suggests a weak agonist activity; cited from earlier work.
Data set [6] concerns CB2. Further details: method as in PMID 28861508. To be noted: relative to THC; cited from earlier work.
For data set [7], the system named is CB1. Further details: method as in PMID 28861508. Particulars: relative to THC; cited from earlier work.
The mark [8] stands for this setting: oral 5 mg/kg Cannabixir Medium Flos (0.78 mg Δ9-THCA-A + Δ9-THC).
[9] abbreviates: oral 50 mg/kg Cannabixir Medium Flos (7.8 mg Δ9-THCA-A + Δ9-THC).
[10] abbreviates: oral 300 mg/kg Cannabixir Medium Flos (46.8 mg Δ9-THCA-A + Δ9-THC).
The mark [11] stands for this setting: oral 600 mg/kg Cannabixir Medium Flos (93.6 mg Δ9-THCA-A + Δ9-THC).

Broadly, the Tmax is the time from dosing to the highest level. As usually defined, the Cmax is the peak of the concentration-time curve. For `CCCCCc1cc(O)c2c(c1)OC(C)(C)[C@@H]1CCC(C)=C[C@@H]21` [Δ9-THC, Δ9-tetrahydrocannabinol], in data set [1] (setting [8]), the Tmax is on record as 0 h. Also, the Tmax in data set [1] (setting [9]) stood at 0 h. Also, in data set [1] (setting [10]), the “AUC Inf” value is “BQL”, the “AUC Last” value is recorded as “BQL”, the Cl result was “BQL” and the Cmax result is recorded as “BQL”. In addition, in data set [1] (setting [10]), the T1/2 entry is reported as “BQL”, the Tmax result was “BQL” and the Vd entry was “BQL”. Moreover, in data set [1] (setting [11]), the “AUC Inf” value amounted to 287.2334 ng·h/mL, the “AUC Last” value worked out at 284.342 ng·h/mL, the Cl was determined as 5431.12 mL/min/kg and the Cmax worked out at 34.916 ng/mL. Further, in data set [1] (setting [11]), the T1/2 is 7.080 h, the Tmax amounted to 0.25 h and the Vd is given as 3328.818 L/kg. In addition, in data set [1], the “amount identified and quantitated in serum samples” value (“amount identified and quantitated” for short) is “low amounts”.
Consider `CCCCCc1cc2c(c(O)c1C(=O)O)C=CC(C)(CCC=C(C)C)O2` (stereo not drawn) [CBCA, cannabichromenic acid], for which the “amount identified and quantitated” value in data set [1] is on record as “low amounts”.
`CCCCCc1cc(O)c(C/C=C(\C)CCC=C(C)C)c(O)c1C(=O)O` [CBGA, cannabigerolic acid]: in data set [2], the frequency of convulsions entry was “increase frequency of convulsions”. Besides, the “amount identified and quantitated” value in data set [1] is “high amounts”. For the same molecule, the “effect on seizure models with electric shocks” value in data set [3] was “pro-convulsive”.
Turning to `C=C(C)[C@@H]1CCC(C)=C[C@H]1c1c(O)cc(CCCCC)c(C(=O)O)c1O` [CBDA, cannabidiolic acid], the “amount identified and quantitated” value in data set [1] is recorded as “low amounts”.
With `CCCCCc1cc2c(c(O)c1C(=O)O)C1C=C(C)CCC1C(C)(C)O2` (stereo not drawn) [Δ9-THCA-A, Δ9-tetrahydrocannabinolic acid], the “efficacy for CB2” value in data set [4] is “no efficacy”. For the same molecule, the “efficacy at CB1 (AMPc)” value in data set [5] is listed as “slightly inhibited AMPc”. In addition, in data set [6], the “binding for CB2, times smaller than THC” value is at least 125 times. Also, in data set [7], the “binding for CB1, times smaller than that of THC” value is reported as “at least 62 times”. For the same molecule, in data set [1] (setting [8]), the “AUC Inf” value is 260.802 ng·h/mL, the “AUC Last” value worked out at 197.236 ng·h/mL, the Cmax came out at 42.425 ng/mL and the T1/2 was found to be 5.3374 h. In data set [1] (setting [8]), the Tmax amounted to 3 h and the Vd was determined as 23.0298 L/kg. In data set [1] (setting [9]), the “AUC Inf” value was 3172.8488 ng·h/mL, the “AUC Last” value worked out at 3163.1937 ng·h/mL, the Cl amounted to 40.972 mL/min/kg and the Cmax was 404.16 ng/mL. In data set [1] (setting [9]), the T1/2 was found to be 5.4189 h, the Tmax is on record as 3 h and the Vd came out at 19.2193 L/kg. For the same molecule, in data set [1] (setting [10]), the “AUC Inf” value is reported as 13,544.792 h*ng/mL, the “AUC Last” value was 13,323.57 h*ng/mL, the Cl is 57.587 mL/min/kg and the Cmax turned out to be 2787.617 ng/mL. Moreover, in data set [1] (setting [10]), the T1/2 was determined as 10.291 h, the Tmax was 0.5 h and the Vd amounted to 51.298 L/kg. Besides, in data set [1] (setting [11]), the “AUC Inf” value is given as 43,261.689 h*ng/mL, the “AUC Last” value was 40,371.48 h*ng/mL, the Cl came to 36.058 mL/min/kg and the Cmax is 10,563.4 ng/mL. Besides, in data set [1] (setting [11]), the T1/2 was found to be 10.988 h, the Tmax was determined as 0.25 h and the Vd came to 34.298 L/kg. In addition, the “amount identified and quantitated” value in data set [1] is reported as “high amounts”.
Turning to `CCCCCc1cc(O)c(C/C=C(\C)CCC=C(C)C)c(O)c1` [CBG, Cannabigerol], the frequency of convulsions entry in data set [2] was “increase frequency of convulsions”.
Take `C=C(C)[C@@H]1CCC(C)=C[C@H]1c1c(O)cc(CCC)c(C(=O)O)c1O` [CBDVA, cannabidivarinic acid]: the frequency of convulsions result in data set [2] is “increase frequency of convulsions”.
For the molecule `CCCc1cc2c(c(O)c1C(=O)O)C=CC(C)(CCC=C(C)C)O2` (stereo not drawn) [CBCVA, cannabichromevarinic acid], in data set [2], the frequency of convulsions result was “increase frequency of convulsions”.
